Laboratory results reported in paper PMC11511111, “Scoliidines: Neuroprotective Peptides in Solitary Scoliid Wasp Venoms” (Toxins, 2024).
Where no end group is shown, it is not given here.

Assays:
[1] = system: acetylcholine (ACh) receptors of insect central nervous system; conditions: result in words; insects' central nervous system; ref [18],[19],[20]; cited from earlier work
Description: Scoliid wasp venoms were the first solitary wasp venoms to be studied between the years 1987 and 1990, and the presence of bradykinin-related peptides was reported. […] Since the f ...

[2] = system: human neprilysin (NEP); assay: Peptide stability / cleavage by neprilysin; format: in vitro ADME; conditions: relative hydrolysis ratio; peptide 30 µmol·L^−1, NEP 7.5 ng, 37 °C, 4 h
Description: (§1) All chemicals used here were analytical reagent grade (purity higher than 95%) purchased from different brands. The AChE enzyme was derived from Electrophorus electricus Type VI-S, and the ACE I enzyme was derived from rabbit lung and was acquired from Sigma-Aldrich Corporation (St. Louis, MO, USA). Neprilysin and the substrates [Abz-FRK (Dnp) P-OH and Abz-RGFK (Dnp)-OH] were supplied by Prof. Adriana Carmona from the Department of Biophysics at Federal University of São Paulo (SP, Brazil). PC12 cell (American Type Culture Collection ® CRL-1721™; Manassas, VA, USA) was used in the present study. Cells were routinely cultured in DMEM medium (Sigma-Aldrich Corporation; St. Louis, MO, USA), according to a previous study.
(§2) The stability tests of peptides (30 µmol·L^−^1) were tested after incubation separately with ACE and NEP (7.5 ng) at 37 °C for 4 h, according to previous reports.

[3] = system: angiotensin-converting enzyme (ACE); assay: Peptide stability / cleavage by angiotensin-converting enzyme; format: in vitro ADME, rabbit; conditions: relative hydrolysis ratio; peptide 30 µmol·L^−1, ACE 7.5 ng, 37 °C, 4 h
Description: as §1, §2

[4] = system: PC12 cells; assay: PC12 cytotoxicity (crystal violet cell viability); format: cell-based; conditions: result in words
Protocol: Figure 2 Cytotoxic effects of γ-, δ- and ε-scoliidines on PC12 viability. The cells were exposed to peptides at different concentrations and times. The control and DMSO groups correspond to cells that have not been treated and cells that have been treated with a 5% concentration of DMSO, respectively. […] Statistical analysis was conducted using a one-way analysis of variance (ANOVA), followed by Dunnett’s post-test. The statistical difference when compared to the control group (p < 0.05) was indicated by asterisks.
as §1
The cytotoxicity assay was performed using the staining of attached cells with crystal violet dye, according to the literature. Briefly, PC12 cells (5 × 10^3 cells per well; 96-well plates) were treated with different concentrations and times. Untreated cells or treated with DMSO (5%; v·v^−1) were included as controls. We measured the absorbance of dye solubilized in methanol at 570 nm using a microplate reader (BioTek Instruments, Inc., Winooski, VT, USA). We collected data from three distinct examinations, each performed three times, showing the percentage of cell viability relative to the control.
All results are shown as mean ± SD from three separate experiments (n = 3) in triplicate. One-way analysis of variance (ANOVA) was used for between-group comparisons, and Dunnett’s post-hoc test was used for multiple comparisons. Statistical significance was defined as p < 0.05. The analyses were done using GraphPad Prism 6.0 (GraphPad Software, Inc., La Jolla, CA, USA).

[5] = system: PC12 neuronal cells; assay: PC12 mitochondrial metabolism (MTT reduction) / neuroprotection against H2O2-induced oxidative stress; format: cell-based; conditions: H2O2 0.5 mmol·L^−1, 20 h, percent compared to control group, oxidative stress model
Protocol: PC12 cells were pre-treated with γ-, δ- or ε-scoliidines for 4 h and then exposed to γ-, δ- or ε-scoliidines containing H2O2 for an additional 20 h, providing a protective model (Figure 3A). Cells subjected to a 20-h exposure to H2O2 represent an oxidative stress model.
Figure 3 Neuroprotective property of γ-, δ- and ε-scoliidines on mitochondrial metabolism of the PC12 cell line against H2O2-induced oxidative stress. (A) The experiment involved treating cells (5 × 10^3 cells per well in a 96-well plate) with γ, δ, and ε scoliidines (1 μmol·L^−1) for 4 h at 37 °C. After that, the medium was changed with a solution containing peptide (1 μmol·L^−1) and H2O2 (0.5 mmol·L^−1), and the cells were incubated for an additional 20 h. (B) Protective effects of peptides against neurotoxicity caused by oxidative stress. […]
PC12 cells (5 × 10^3 cells per well) seeded in a 96-well plate (Nest Biotechnology, Rahway, NJ, USA) were used to study the neuroprotective effects of peptides against H2O2-induced oxidative stress, according to a previous study. […] The mitochondrial metabolism was analyzed by 3-(4,5-dimethylthiazol-2-yl)-2,5-diphenyltetrazolium bromide (MTT; 0.5 mg·mL^−1 for 3 h of incubation at 37 °C) reduction assay. The absorbance of the MTT formazan dissolved in 100% DMSO was measured at a wavelength of 540 nm using a spectrophotometer (BioTek Instruments, Inc., Winooski, VT, USA). […]

[6] = system: neuronal PC12 cells; conditions: result in words, ref [26]; cited from earlier work
Description: (§3) In recent years, our investigation has focused on scoliid wasp venoms. Scoliid wasps hunt and sting beetle larvae under the ground. Comprehensive LC-MS and MS/MS analysis of the venom extract from Scolia decorata ventralis identified two major peptide components named α- and β-scoliidine. […] This is the first case of solitary wasp venom peptides showing neuroprotective activity. Similarly, venom components of Campsomeriella annulata annulata were in ...

[7] = system: acetylcholinesterase (AChE); assay: Acetylcholinesterase (AChE) activity, Ellman's method; format: biochemical, Electrophorus electricus; conditions: compared to control (100 ± 1.6%), mean ± SD
Description: Figure 4 Effects of γ-, δ- and ε-scoliidines on the function of acetylcholinesterase (AChE). The AChE activity was quantified as a percentage of hydrolyzed acetylthiocholine iodine substrate compared to the control (C; blank box). The data obtained from three separate experiments, each performed three times, is presented as mean ± SD.
as §1
The inhibition of AChE activity was determined spectrophotometrically based on Ellman’s method, as previously reported. We calculated AChE activity as the hydrolyzed acetylthiocholine iodide substrate concentration as a percentage of control.
All results are shown as mean ± SD from three separate experiments (n = 3) in triplicate. […]

[8] = system: PC12 neuronal cells; conditions: result in words, ref [25]; cited from earlier work
Description: as §3

[9] = all concentrations and times assessed, 570 nm

For RPPGFTPFR [Thr^6-bradykinin], the “blocking action on ACh receptors” value [1] is given as “showing a blocking action on ACh receptors”.
For “RPPGFSPFR [bradykinin, reference compound]”, the “Cleavage (%) NEP” value [2] was 100% and the “Cleavage (%) ACE” value [3] was 100%.
For DYVTVKGFSPLRKA [β-scoliidine], the “Cleavage (%) NEP” value [2] was under 0.01% and the “Cleavage (%) ACE” value [3] was under 0.01%.
In the case of YVTVKGFSPLREP [δ-scoliidine], the cell viability [4, 9] was “cell viability remained unchanged”, the “Cleavage (%) NEP” value [2] was under 0.01% and the “Cleavage (%) ACE” value [3] was under 0.01%.
With `OO` [H2O2] the “mitochondrial metabolism of PC12 cells treated only with H2O2” value [5] was 75.8 ± 2.4%.
For RPPGFTPFRKA [Megascoliakinin], the “blocking action on ACh receptors” value [1] is given as “showing a blocking action on ACh receptors”.
For PRLRRLTGLSPLR [α-campsomerin], the “cell growth potentiating effect” value [6] is listed as “showed a cell growth potentiating effect”.
For `CCOP(=O)(OCC)OP(=O)(OCC)OCC` [TEPP, tetraethyl pyrophosphate], the “AChE activity with positive control” value [7] was 27.8 ± 6.5%.
In the case of `C[S+](C)[O-]` [DMSO, reference compound], the “cell viability with DMSO” value ([4]; DMSO 5% (v·v^−1)) was “decrease in cell viability”.
In the case of DYVTVKGFSPLR [α-scoliidine], the “neuroprotective effect against oxidative stress-induced neurotoxicity” value [8] is listed as “only β-scoliidine showed a neuroprotective effect”.
With YVTVKGFSPLR [γ-scoliidine] the cell viability [4, 9] was “cell viability remained unchanged”, the “Cleavage (%) NEP” value [2] was under 0.01% and the “Cleavage (%) ACE” value [3] was under 0.01%.
With DYVTVKGFSPLREP [ε-scoliidine] the cell viability ([4]; 0.01 μmoL·L^−1, up to 6 h of treatment, 570 nm, three experiments in triplicate) was “enhanced cell viability”, the cell viability ([4]; 10 μmoL·L^−1, 24 h, 570 nm, three experiments in triplicate) was “cell viability decreased” and the “concentration dependence of decrease in cell viability” value ([4]; 570 nm) was “decrease in cell viability was dependent on the concentration”. For the same compound, the “Cleavage (%) NEP” value [2] was under 0.01% and the “Cleavage (%) ACE” value [3] was under 0.01%.
For PRLRRLTGLSPLRAP [β-campsomerin], the “cell growth potentiating effect” value [6] is listed as “had no effect”.
